# In ChEMBL document CHEMBL6127134, “Light-Activable Inhibitor Overcomes Antimicrobial Resistance and Regulates Antibacterial Activity” (J Med Chem, 2024):
# Calls of active or inactive are those of the source. The rule behind the calls is not given here.
# Columns and labels:
# Escherichia coli [1] = assay: Antibiofilm activity against drug susceptible Escherichia coli incubated for 48 hrs in presence of CFS by crystal violet staining based microplate reader assay; type: functional, organism-based
# Bacteria [2] = assay: Inhibition of TEM-1 activity (unknown origin) at 10 ug/ml using nitrocefin as substrate preincubated for 30 mins followed by 485 nm light irradiation and substrate addition by UV-Vis spectrometer assay; settings: dose 10.0 µg/ml
# Escherichia coli [3] = assay: Bactericidal activity against drug resistant Escherichia coli after repeated drug exposure for three generation and measured on fourth generation in presence of CFS by plate count method; type: functional
# Escherichia coli [4] = assay: Bactericidal activity against drug resistant Escherichia coli in presence of CFS by plate count method; type: functional
# Escherichia coli [5] = assay: Synergistic antibacterial activity against cefoperazone sodium resistant Escherichia coli assessed as decrease in CFS MIC at 20 ug/ml incubated for 8 hrs (reference value: 285 ug/ml); type: functional; settings: dose 20 µg/ml
# Escherichia coli [6] = assay: Synergistic bactericidal activity against CFS resistant Escherichia coli incubated under dark condition in presence of CFS by AO/EB staining based confocal laser scanning microscopy assay; type: functional, organism-based
# [7] = Photoactivation of the compound assessed as photo conversion ratio by measuring SU release under 5 mins of blue light irradiation by HPLC analysis
# Escherichia coli [8] = assay: Synergistic antibacterial activity against Escherichia coli assessed as appearance of shrunken cell wall under light irradiation in presence of CFS; type: functional, organism-based
# Escherichia coli [9] = assay: Antibiofilm activity against drug resistant Escherichia coli incubated for 48 hrs under light irradiation in presence of CFS by crystal violet staining based microplate reader assay; type: functional
# [10] = Stability of compound under ambient light condition measured after 72 hrs; type: physicochemical
# [11] = Photoactivation of the compound assessed as encapsulated SU release under 405 nm light irradiation by HPLC analysis
# Bacteria [12] = assay: Inhibition of TEM-1 activity (unknown origin) at 65 ug/ml using nitrocefin as substrate preincubated for 30 mins followed by 485 nm light irradiation and substrate addition by UV-Vis spectrometer assay; settings: dose 65.0 µg/ml
# Escherichia coli [13] = assay: Antibiofilm activity against drug resistant Escherichia coli incubated for 48 hrs in presence of CFS by crystal violet staining based microplate reader assay; type: functional
# Escherichia coli [14] = assay: Synergistic antibacterial activity against cefoperazone sodium resistant Escherichia coli assessed as elimination of resistant bacteria incubated for 8 hrs in presence of CFS; type: functional
# [15] = Solubility of compound in water; type: physicochemical
# Escherichia coli [16] = assay: Antibiofilm activity against Escherichia coli assessed as reduction in bacterial cell density after 48 hrs under light irradiation in presence of CFS by FITC-ConA staining based confocal laser scanning microscopy analysis; type: functional, organism-based
# Escherichia coli [17] = assay: Antibiofilm activity against Escherichia coli assessed as reduction in exo-polysaccharide content after 48 hrs under light irradiation in presence of CFS by FITC-ConA staining based confocal laser scanning microscopy analysis; type: functional, organism-based
# Escherichia coli [18] = assay: Synergistic antibacterial activity against cefoperazone sodium resistant Escherichia coli assessed as elimination of resistant bacteria in presence of CFS preincubated for 20 mins prior to 405 nm LED laser irradiation for 5 mins and cocultured for 6 hrs under static condition and measured after 24 hrs by plate count method; type: functional; settings: time 1825 min; 30.42 h
# Escherichia coli [19] = assay: Synergistic antibacterial activity against Escherichia coli incubated under dark condition in presence of AMP; type: functional, organism-based
# Bacteria [20] = assay: Inhibition of TEM-1 activity (unknown origin) at 65 ug/ml using nitrocefin as substrate preincubated for 30 mins followed by 485 nm light irradiation and substrate addition measured after 5 mins by UV-Vis spectrometer assay; settings: dose 65.0 µg/ml, time 35.0 min
# Bacteria [21] = assay: Inhibition of TEM-1 activity (unknown origin) at 65 ug/ml using nitrocefin as substrate preincubated for 30 mins followed by 485 nm light irradiation and substrate addition measured after 2 mins by UV-Vis spectrometer assay; settings: dose 65.0 µg/ml, time 32.0 min
# Escherichia coli [22] = assay: Synergistic bactericidal activity against CFS susceptible Escherichia coli incubated under dark condition in presence of CFS by AO/EB staining based confocal laser scanning microscopy assay; type: functional, organism-based
# Escherichia coli [23] = assay: Synergistic antibacterial activity against Escherichia coli assessed as appearance of incomplete cell wall under light irradiation in presence of CFS; type: functional, organism-based
# Escherichia coli [24] = assay: Synergistic bactericidal activity against CFS resistant Escherichia coli incubated under light irradiation in presence of CFS by AO/EB staining based confocal laser scanning microscopy assay; type: functional, organism-based
# Escherichia coli [25] = assay: Downregulation of beta-lactamase expression in Escherichia coli measured after eighth generation in presence of CFS under light irradiation condition by ELISA; type: functional
# Escherichia coli [26] = assay: Synergistic antibacterial activity against CFS resistant Escherichia coli assessed as increase in bacterial killing in presence of CFS preincubated for 20 mins prior to 405 nm LED laser irradiation for 5 mins and cocultured for 6 hrs under static condition and measured after 24 hrs by plate count method; type: functional, organism-based; settings: time 1825.0 min
# Escherichia coli [27] = assay: Synergistic antibacterial activity against Escherichia coli incubated under light irradiation in presence of AMP; type: functional, organism-based
# Bacteria [28] = assay: Inhibition of TEM-1 activity (unknown origin) at 65 ug/ml using nitrocefin as substrate under absence of light irradiation by UV-Vis spectrometer assay; settings: dose 65.0 µg/ml
# Escherichia coli [29] = assay: Synergistic antibacterial activity against CFS susceptible Escherichia coli assessed as increase in bacterial killing incubated under dark condition in presence of CFS; type: functional, organism-based
# Escherichia coli [30] = assay: Synergistic bactericidal activity against CFS susceptible Escherichia coli incubated under light irradiation in presence of CFS by AO/EB staining based confocal laser scanning microscopy assay; type: functional, organism-based
# Escherichia coli [31] = assay: Synergistic antibacterial activity against cefoperazone sodium resistant Escherichia coli assessed as decrease in CFS MIC at 132 ug/ml preincubated for 20 mins prior to 405 nm LED laser irradiation for 5 mins and cocultured for 6 hrs under static condition and measured after 24 hrs by plate count method (reference value: 285 ug/ml); type: functional; settings: light or radiation study, 30.42 h, dose 132 µg/ml, time 1825 min
# Escherichia coli [32] = assay: Bactericidal activity against drug resistant Escherichia coli after repeated drug exposure for multiple generation under light irradiation in presence of CFS by plate count method; type: functional, organism-based
# HeLa = assay: Cytotoxicity against human HeLa cells assessed as viable cells after 200 ug/ml incubated for 24 hrs by MTT assay; type: functional; settings: read-out: Activity
# Escherichia coli [33] = assay: Antibacterial activity against drug resistant Escherichia coli; type: functional
# Escherichia coli [34] = assay: Antibacterial activity against drug susceptible Escherichia coli; type: functional
# Bacteria [35] = assay: Inhibition of TEM-1 activity (unknown origin); settings: concentration not given here
# Escherichia coli [36] = assay: Antibacterial activity against cefoperazone sodium susceptible Escherichia coli incubated for 8 hrs; type: functional
# Escherichia coli [37] = assay: Bactericidal activity against CFS resistant Escherichia coli incubated under dark condition by AO/EB staining based confocal laser scanning microscopy assay; type: functional, organism-based
# Escherichia coli [38] = assay: Bactericidal activity against CFS susceptible Escherichia coli incubated under light irradiation by AO/EB staining based confocal laser scanning microscopy assay; type: functional, organism-based
# Escherichia coli [39] = assay: Bactericidal activity against CFS susceptible Escherichia coli incubated under dark condition by AO/EB staining based confocal laser scanning microscopy assay; type: functional, organism-based
# Escherichia coli [40] = assay: Antibiofilm activity against drug susceptible Escherichia coli incubated for 48 hrs by crystal violet staining based microplate reader assay; type: functional, organism-based
# Escherichia coli [41] = assay: Antibacterial activity against cefoperazone sodium resistant Escherichia coli incubated for 8 hrs; type: functional
# Escherichia coli [42] = assay: Antibacterial activity against CFS resistant Escherichia coli assessed as change in bacterial cell wall by SEM analysis; type: functional, organism-based
# Escherichia coli [43] = assay: Antibiofilm activity against drug resistant Escherichia coli incubated for 48 hrs by crystal violet staining based microplate reader assay; type: functional
# Escherichia coli [44] = assay: Antibacterial activity against cefoperazone sodium resistant Escherichia coli assessed as elimination of resistant bacteria incubated for 8 hrs; type: functional
# [45] = Drug uptake in Escherichia coli assessed as increase in red fluorescence at 1 mg/ml incubated for 15 mins under dark condition by acridine orange staining based confocal laser scanning microscopy analysis; type: ADME; settings: 0.25 h
# [46] = Drug uptake in Escherichia coli assessed as increase in red fluorescence at 1 mg/ml after 1 mins under 405 nm light irradiation by acridine orange staining based confocal laser scanning microscopy analysis; type: ADME
compound,measurement,setting,value
CC1(C)[C@H](C(=O)O)N2C(=O)C[C@H]2S1(=O)=O [SULBACTAM],Activity,Escherichia coli [1],Active
same,inhibition,Bacteria [2],93.3%
same,Activity,Escherichia coli [3],45%
same,Activity,Escherichia coli [4],98%
same,MIC,Escherichia coli [5],14 µg/mL
CC(COC(=O)C1N2C(=O)CC2S(=O)(=O)C1(C)C)c1cc(-c2ccc(OCCOCCOCCOCCn3nncc3CCCO[C@H]3O[C@H](CO)[C@H](O)[C@H](O)[C@H]3O)cc2)ccc1[N+](=O)[O-] (stereo not given in full),Activity,Escherichia coli [6],inactive
same,Activity,[7],62%
same,Activity,Escherichia coli [8],Active
same,Activity,Escherichia coli [9],~90%
same,Stability,[10],Stable
same,Activity,[11],~ 60%
same,inhibition,Bacteria [12],Active
same,Activity,Escherichia coli [13],~50%
same,Activity,Escherichia coli [1],Active
same,Activity,Escherichia coli [14],54.7%
same,solubility,[15],≤ 1000 µM
same,Activity,Escherichia coli [16],Active
same,Activity,Escherichia coli [17],Active
same,Activity,Escherichia coli [18],96.01%
same,Activity,Escherichia coli [19],Active
same,inhibition,Bacteria [20],89.1%
same,inhibition,Bacteria [21],84.7%
same,Activity,Escherichia coli [22],inactive
same,Activity,Escherichia coli [23],Active
same,Activity,Escherichia coli [24],Active
same,Activity,Escherichia coli [25],Active
same,Activity,Escherichia coli [26],Active
same,Activity,Escherichia coli [27],Active
same,inhibition,Bacteria [28],7.26%
same,Activity,Escherichia coli [29],Active
same,Activity,Escherichia coli [30],Active
same,MIC,Escherichia coli [31],14 µg/mL
same,Activity,Escherichia coli [32],Active
same,viability at 200 µg/mL,HeLa,> 90%
CC1(C)S[C@@H]2[C@H](NC(=O)[C@H](N)c3ccccc3)C(=O)N2[C@H]1C(=O)O [AMPICILLIN],MIC,Escherichia coli [33],150 µg/mL
same,MIC,Escherichia coli [34],8 µg/mL
CC1(C)C(C(=O)OCCCOC(=O)Cc2ccccc2[N+](=O)[O-])N2C(=O)CC2S1(=O)=O (stereo not given),inhibition,Bacteria [35],10.6%
CCN1CCN(C(=O)N[C@@H](C(=O)N[C@@H]2C(=O)N3C(C(=O)[O-])=C(CSc4nnnn4C)CS[C@H]23)c2ccc(O)cc2)C(=O)C1=O.[Na+] [CEFOPERAZONE SODIUM],MIC,Escherichia coli [36],14 µg/mL
same,Activity,Escherichia coli [37],inactive
same,Activity,Escherichia coli [38],Active
same,Activity,Escherichia coli [39],Active
same,Activity,Escherichia coli [40],Active
same,MIC,Escherichia coli [41],285 µg/mL
same,Activity,Escherichia coli [42],inactive
same,Activity,Escherichia coli [43],~50%
same,Activity,Escherichia coli [44],54.2%
CC1(C)C(C(=O)OCCc2ccccc2[N+](=O)[O-])N2C(=O)CC2S1(=O)=O (stereo not given),Activity,[7],25%
same,inhibition,Bacteria [35],9.03%
CCN(CC)c1ccc2c(-c3ccccc3COCC(C)c3cc(-c4ccc(OCCOCCOCCOCCn5nncc5CCCO[C@H]5O[C@H](CO)[C@H](O)[C@H](O)[C@H]5O)cc4)ccc3[N+](=O)[O-])c3ccc(=[N+](CC)CC)cc-3oc2c1.Cl (stereo not given in full),Drug uptake,[45],Active
same,Drug uptake,[46],Active
